These results are taken from PMC6017000, “Distribution Assessments of Coumarins from Angelicae Pubescentis Radix in Rat Cerebrospinal Fluid and Brain by Liquid Chromatography Tandem Mass Spectrometry Analysis” (Molecules : A Journal of Synthetic Chemistry and Natural …, 2018).

Where two headings read alike, the source gives them in different places.

For series [1] the following is noted: rat, in vivo, po.
Procedure: (§1) Aliquots of 50 μL CSF samples with IS (10 μL, 200 ng/mL) were extracted with 600 μL ethyl acetate.
(§2) The UPLC-MS/MS system consisted of a Shimadzu Nexera UPLC instrument connected to a Shimadzu LCMS-8050 mass spectrometer via the electrospray ionization interface (Shimadzu Corp., Kyoto, Japan). Samples were separated on an ACQUITY UPLC BEH RP18 column (2.1 × 100 mm, 1.7 µm, Waters, Milford, MA, USA) equipped with a BEH RP18 guard column (2.1 × 5 mm, 1.7 µm, Waters, Milford, MA, USA). The column temperature was 30 °C, and the flow rate was 0.4 mL/min. The sample injection volume was 5 µL. The mobile phases consisted of 0.1% (v/v) formic acid in water (A) and ACN (B). […] The precursor ion, product ion, Q1, Q3, CE and DT were optimized.
(§3) The time schedule included 9 time-points, and six rats were sampled at each time-point. The rats were fasted overnight with free access to water before the experiment. APRE was suspended with the normal saline and orally administered to the rats at a single dose of 4 g/kg. The animals had free access to water during the experiment.
(§4) Rats were anesthetized by an intraperitoneal dose of chloral hydrate (350 mg/kg) at 0.25, 0.5, 1, 1.5, 2, 4, 6, 8, 12 h after oral administration of APRE. A dorsal midline cutaneous incision was made, and the muscle at the craniocervical junction was bluntly dissected to expose the atlanto-occipital membrane. The cisterna magna was punctured with a thin syringe needle, and a microinjector connected with the needle was used to collect the interior CSF carefully [27]. Clear CSF was transferred to a clean microtube and frozen at −80 °C until further use. Blood contaminated samples were excluded.
(§5) Results were expressed as the mean ± standard deviation (SD). The UPLC-MS/MS data were processed with Labsolutions 5.65 software (Shimadzu Corp., Kyoto, Japan). The pharmacokinetic parameters were calculated with the Drug and Statistics 2.0 software (Mathematical Pharmacology Professional Committee of China, Shanghai, China).
The conditions of series [2]: rat, in vivo, po. This is another data set of the same source.
Procedure: (§6) Each weighed brain sample was homogenized with a 2-fold volume of normal saline solution. IS solution (10 μL, 200 ng/mL) was added to 300 μL of the homogenate. The mixture was then extracted with a 3-fold volume of ethyl acetate. The mixture was vortexed for 1 min and centrifuged at 16,000× g for 10 min. The supernatant was transferred out and dried under a gentle constant flow of nitrogen. The residue was then dissolved with 100 μL of MeOH and ultrasonically (power 250 W, frequency 40 KHz) extracted for 10 min. After centrifugation at 16,000× g for 10 min, the supernatant was drawn out into a clean vial, and 5 μL of each were injected into the UPLC–MS/MS system for analysis.
(§7) The UPLC-MS/MS system consisted of a Shimadzu Nexera UPLC instrument connected to a Shimadzu LCMS-8050 mass spectrometer via the electrospray ionization interface (Shimadzu Corp., Kyoto, Japan). Samples were separated on an ACQUITY UPLC BEH RP18 column (2.1 × 100 mm, 1.7 µm, Waters, Milford, MA, USA) equipped with a BEH RP18 guard column (2.1 × 5 mm, 1.7 µm, Waters, Milford, MA, USA). The column temperature was 30 °C, and the flow rate was 0.4 mL/min. The sample injection volume was 5 µL. The mobile phases consisted of 0.1% (v/v) formic acid in water (A) and ACN (B). The LC gradient elution program and mass working parameters were the same as our previous report [6]. […] The precursor ion, product ion, Q1, Q3, CE and DT were optimized.
as §3
(§8) Cardiac perfusion was carried out quickly with physiological saline after CSF collection at each time-point. The rat brains were separated, weighed and then stored at −80 °C until treatment.
as §5
Series [3] in a line: Stability of QC samples in rat brain homogenate (freeze-thaw, room temperature). In kind it is physicochemical. The following applies: percentage remaining, n = 5; for Stability room temperature: room temperature 24 h; for Stability Freeze-thaw: three freeze-thaw cycles.
Series [4] can be described thus: Stability of QC samples in aCSF (freeze-thaw, room temperature). It counts as physicochemical. The following applies: percentage remaining, n = 5; for Stability room temperature: room temperature 24 h; for Stability Freeze-thaw: three freeze-thaw cycles.
A short description of series [5]: Rat brain distribution after oral administration of APRE (UPLC-MS/MS). The following applies: for AUC0→t / AUC0→∞ / CLz/F / Vz/F: rat brain, oral APRE 4 g/kg, mean ± SD, n = 6; for Tmax / half-life / Kp / log BBexpt.: rat; for Tmax / half-life: brain; for Tmax / half-life / Kp: po, 4 g/kg; for Kp: brain/plasma; for log BBexpt.: log (AUC0→∞/brain/AUC0→∞/plasma), oral APRE.
Procedure: as §6, §7, §3, §8, §5

Series [6] in a line: Rat CSF distribution after oral administration of APRE (UPLC-MS/MS). The following applies: for AUC(0-inf) / AUC(0-t) / Cmax / Tmax / half-life: CSF, po, 4 g/kg.
Procedure: as §1, §2, §3, §4, §5
On the set-up of series [7]: method as in PMID 28654868. The following applies: rat plasma, oral APRE; cited from earlier work.
In a further series the test system is in vitro BBB model. Details: method as in PMID 26121397. The following applies: based on bidirectional Papp values; cited from earlier work.

For orientation: Tmax means the time from dosing to the highest level. As usually defined, the half-life is how long it takes for the measured level to halve. A high value points to slow loss. A word on the Kp: it is the ratio of the level in a tissue or fluid to that in plasma or blood. In general, AUC(0-inf) refers to total exposure, with the tail of the curve extrapolated. Low readings indicate low exposure, high ones high exposure. Broadly, the AUC(0-t) is the area under the concentration-time curve up to a stated or last time point. Read a high AUC(0-t) as more exposure. As a reminder, the Cmax is the maximum level reached in the sampled fluid or tissue.

For `CC(C)=CCOc1c2occc2cc2ccc(=O)oc12` [imperatorin], in series [1], the “MRM response in CSF” value is recorded as “under LLOQ”. Also, the “MRM response in brain” value in series [2] was “under LLOQ”.

Regarding `CC(C)(O)[C@@H]1Cc2c(ccc3ccc(=O)oc23)O1` [Compound 5, columbianetin], in series [3] (rat brain QC 5 ng/mL), the Stability room temperature is listed as 97.88±10.06% and the “Stability Freeze-thaw” value came out at 105.83±7.01%. In addition, in series [3] (rat brain QC 1200 ng/mL), the Stability room temperature is recorded as 89.46±3.10% and the “Stability Freeze-thaw” value stood at 91.69±3.42%. Also, in series [3] (rat brain QC 2400 ng/mL), the Stability room temperature was found to be 91.21±6.60% and the “Stability Freeze-thaw” value is listed as 87.85±9.09%. In series [4] (aCSF QC 5 ng/mL), the Stability room temperature came to 97.23±8.25% and the “Stability Freeze-thaw” value came to 96.35±9.69%. Moreover, in series [4] (aCSF QC 320 ng/mL), the Stability room temperature was 93.93±2.94% and the “Stability Freeze-thaw” value was 93.46±8.56%. In series [4] (aCSF QC 640 ng/mL), the Stability room temperature worked out at 99.45±9.62% and the “Stability Freeze-thaw” value was 93.87±4.82%. Moreover, in series [5], the AUC0→t is 13,438.17 ± 2016.06 µg/kg·h, the “AUC0→∞” value is reported as 16,664.04 ± 3662.67 µg/kg·h, the CLz/F is recorded as 0.11 ± 0.02 g/h/kg and the Vz/F was 0.57 ± 0.39 g/kg. In series [5], the Tmax came out at 4 ± 1.79 h, the half-life was 3.92 ± 3.33 h and the partition ratio (Kp) was found to be 0.08. Moreover, in series [6] (rat), the AUC(0-inf) came to 4140 ± 602 ng·h/mL, the AUC(0-t) was found to be 3370 ± 604 ng·h/mL, the Cmax was 485 ± 91.4 ng/mL and the Tmax was found to be 5 ± 1.1 h. This compound showed a half-life in series [6] (rat) of 4.06 ± 2.42 h. In series [7], the “plasma Cmax” value was 2240.32 ± 1031.92 ng/mL.

Turning to `CC(C)=CCOc1c2ccoc2cc2oc(=O)ccc12` [Compound 4, isoimperatorin], in series [3] (rat brain QC 5 ng/mL), the Stability room temperature turned out to be 91.59±10.74% and the “Stability Freeze-thaw” value worked out at 104.96±13.66%. Besides, in series [3] (rat brain QC 80 ng/mL), the Stability room temperature was 88.65±10.02% and the “Stability Freeze-thaw” value is on record as 93.10±4.03%. In addition, in series [3] (rat brain QC 160 ng/mL), the Stability room temperature is 86.85±3.37% and the “Stability Freeze-thaw” value was 89.68±3.96%. In addition, the “absorption classification across the in vitro BBB model” value in the series with in vitro BBB model is on record as “moderately-absorbed”. In series [5], the “log BBexpt.” value is −0.16, the AUC0→t is 15.51 ± 4.82 µg·h/kg, the “AUC0→∞” value is 21.56 ± 14.56 µg·h/kg and the CLz/F amounted to 52.86 ± 24.79 g/h/kg. Further, in series [5], the Vz/F turned out to be 245.44 ± 108.54 g/kg, the Tmax was 0.33 ± 0.13 h and the half-life was 3.54 ± 1.35 h. Further, the “MRM response in CSF” value in series [6] (rat CSF after oral APRE) is given as “under LLOQ”.

As for `COc1c2ccoc2cc2oc(=O)ccc12` [Compound 3, bergapten], in series [3] (rat brain QC 5 ng/mL), the Stability room temperature is listed as 88.02±2.73% and the “Stability Freeze-thaw” value came out at 89.97±6.29%. In series [3] (rat brain QC 80 ng/mL), the Stability room temperature turned out to be 86.01±3.16% and the “Stability Freeze-thaw” value amounted to 85.30±8.42%. In series [3] (rat brain QC 160 ng/mL), the Stability room temperature came out at 86.84±6.63% and the “Stability Freeze-thaw” value stood at 90.70±9.46%. In series [4] (aCSF QC 5 ng/mL), the Stability room temperature is listed as 106.76±8.57% and the “Stability Freeze-thaw” value is given as 92.34±7.48%. For the same compound, in series [4] (aCSF QC 40 ng/mL), the Stability room temperature was determined as 94.61±4.23% and the “Stability Freeze-thaw” value is recorded as 93.24±6.30%. Also, in series [4] (aCSF QC 80 ng/mL), the Stability room temperature is on record as 99.54±7.55% and the “Stability Freeze-thaw” value is on record as 97.23±5.17%. For the same compound, in series [5], the AUC0→t stood at 418.20 ± 93.60 µg·h/kg, the “AUC0→∞” value was found to be 449.85 ± 97.52 µg·h/kg, the CLz/F turned out to be 3.22 ± 0.85 g/h/kg and the Vz/F is 10.76 ± 4.73 g/kg. For the same compound, in series [5], the Tmax is 1.21 ± 1.53 h, the half-life was 2.34 ± 1.04 h and the Kp turned out to be 0.08. Also, in series [6] (rat), the AUC(0-inf) is 41.3 ± 5.77 ng·h/mL, the AUC(0-t) worked out at 27.1 ± 2.26 ng·h/mL, the concentration peaked (Cmax) at 3.95 ± 0.24 ng/mL and the Tmax came to 1.46 ± 0.84 h. The same compound gave a half-life in series [6] (rat) of 6.72 ± 1.95 h.

For `CC=C(C)C(=O)OC(C(O)c1cc2ccc(=O)oc2cc1OC)C(C)(C)O` (stereo not drawn) [Compound 9, angelol B], in series [3] (rat brain QC 5 ng/mL), the Stability room temperature amounted to 96.24±7.79% and the “Stability Freeze-thaw” value came out at 101.51±11.81%. In series [3] (rat brain QC 80 ng/mL), the Stability room temperature is listed as 97.77±8.23% and the “Stability Freeze-thaw” value amounted to 95.20±9.40%. Further, in series [3] (rat brain QC 160 ng/mL), the Stability room temperature is 96.20±7.07% and the “Stability Freeze-thaw” value amounted to 102.98±8.06%. Also, in series [4] (aCSF QC 5 ng/mL), the Stability room temperature is 97.45±4.87% and the “Stability Freeze-thaw” value is on record as 95.14±6.53%. In addition, in series [4] (aCSF QC 40 ng/mL), the Stability room temperature amounted to 95.67±3.47% and the “Stability Freeze-thaw” value is 95.36±7.29%. In addition, in series [4] (aCSF QC 80 ng/mL), the Stability room temperature came to 96.66±9.22% and the “Stability Freeze-thaw” value was 96.89±4.68%. In series [5], the “log BBexpt.” value is reported as −0.44, the AUC0→t amounted to 21.06 ± 8.70 µg·h/kg, the “AUC0→∞” value turned out to be 25.06 ± 8.03 µg·h/kg and the CLz/F was 301.26 ± 92.33 g/h/kg. In series [5], the Vz/F worked out at 1299.16 ± 842.00 g/kg, the Tmax was 0.29 ± 0.1 h and the half-life is 2.77 ± 1.15 h. Further, the “total amount percentage of CSF/plasma” value in series [6] ((0.48 × AUC0→∞/CSF)/(16 × AUC0→∞/plasma), rat, oral APRE) is given as “greater than 1%”. Besides, in series [6] (rat), the AUC(0-inf) is 28.2 ± 3.94 ng·h/mL, the AUC(0-t) was found to be 20 ± 3.35 ng·h/mL, the Cmax amounted to 7.65 ± 4.14 ng/mL and the Tmax is 0.38 ± 0.31 h. Further, the half-life in series [6] (rat) was 7.02 ± 2.51 h. In series [7], the CL in plasma is reported as 110.26 ± 39.27 g/h/kg and the t1/2 in plasma is on record as 6.63 ± 4.37 h.
